Activity calls are given as the source filed them.
Columns and labels:
[1] = target: Fructose-bisphosphate aldolase (Mycobacterium tuberculosis, UniProt P9WQA3); assay: Fluorescence-based biochemical high throughput dose response assay for inhibitors of the fructose-bisphosphate aldolase (FBA) of M. tuberculosis.; type: functional
[2] = potency of ADAM10 substrate cleavage blockers – biochemical, QFRET, dose response (AID 743254);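 further: ADAM10 enzyme with the DM2 quenched FRET peptide as substrate; EDANS fluorescence gain as the protease cuts the substrate; inhibitor potency against ADAM10 proteolytic activity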
[3] = target: Disintegrin and metalloproteinase domain-containing protein 17 (Homo sapiens, UniProt P78536); assay: inhibition of ADAM17 substrate cleavage – biochemical, quenched FRET substrate, counter-screen for ADAM10 exosite inhibitor project, dose response (AID 743253)
[4] = target: T1, Caspase-6 (Homo sapiens, UniProt P55212); assay: inhibition of CASP6 peptide cleavage – biochemical, VEID-R110 fluorescence, cherry-pick, dose response (AID 720632)
T1 sequence (P55212 whole entry): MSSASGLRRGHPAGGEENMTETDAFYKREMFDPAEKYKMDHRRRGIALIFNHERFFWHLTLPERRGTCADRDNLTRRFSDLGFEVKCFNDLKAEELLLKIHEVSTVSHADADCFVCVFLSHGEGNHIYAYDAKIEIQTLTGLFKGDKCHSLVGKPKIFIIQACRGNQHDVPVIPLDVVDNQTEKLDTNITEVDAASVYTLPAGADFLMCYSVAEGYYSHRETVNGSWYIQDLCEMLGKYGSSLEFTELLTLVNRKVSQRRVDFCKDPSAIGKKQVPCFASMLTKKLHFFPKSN

[5] = target: T2, Low molecular weight phosphotyrosine protein phosphatase (Homo sapiens, UniProt P24666); type: functional; settings: read-out: IC50_Mean;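 further: Dose-response confirmation assay measuring inhibition of LMPTP enzyme activity by fluorescence intensity read-out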
T2 sequence (P24666 whole entry): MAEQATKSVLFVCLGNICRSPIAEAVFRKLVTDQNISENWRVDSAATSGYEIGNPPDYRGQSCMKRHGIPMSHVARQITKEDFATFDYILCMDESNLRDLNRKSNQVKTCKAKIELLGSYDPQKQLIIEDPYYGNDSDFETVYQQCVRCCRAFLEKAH

[6] = target: Caspase-7 (Homo sapiens, UniProt P55210); assay: caspase-7 enzyme inhibition, selectivity check – biochemical, DEVD-R110 fluorescence, cherry-pick, selectivity assay for caspase-6 inhibitor project, dose response (AID 743295); type: functional
[7] = target: T3, Nuclear receptor subfamily 0 group B member 1 (Homo sapiens, UniProt P51843); type: functional, cell-based;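 further: HEK293T cells transfected with SF-1 and DAX-1 plus StAR promoter luciferase reporter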
T3 sequence (P51843 whole entry): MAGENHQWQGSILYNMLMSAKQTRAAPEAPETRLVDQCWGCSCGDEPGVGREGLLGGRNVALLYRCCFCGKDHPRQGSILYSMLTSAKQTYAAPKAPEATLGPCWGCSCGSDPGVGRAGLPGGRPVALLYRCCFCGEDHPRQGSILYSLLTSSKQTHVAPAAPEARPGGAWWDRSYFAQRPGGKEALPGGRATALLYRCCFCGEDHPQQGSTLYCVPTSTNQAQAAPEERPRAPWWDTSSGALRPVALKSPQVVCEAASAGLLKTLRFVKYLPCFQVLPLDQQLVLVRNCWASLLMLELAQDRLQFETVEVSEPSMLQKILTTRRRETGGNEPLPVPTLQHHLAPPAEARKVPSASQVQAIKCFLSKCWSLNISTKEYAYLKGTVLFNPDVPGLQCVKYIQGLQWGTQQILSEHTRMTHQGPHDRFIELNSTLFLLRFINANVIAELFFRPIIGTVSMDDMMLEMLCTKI

[8] = cells; type: functional, cell-based
[9] = tested on: Vero; assay: viability loss in Vero cells – cell-based, plate reader, cherry-pick samples, cytotoxicity control, dose response (AID 687020); type: functional; settings: Chlorocebus sabaeus
[10] = fluconazole-exposed Candida albicans growth modulators – fluorescence, retest, confirmation (AID 2467); type: functional, cell-based
[11] = Trypanosoma cruzi growth suppression in host cells – NIH3T3 host cells, beta-gal luminescence, confirmation (AID 2044); type: functional, cell-based;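 further: intracellular parasites grown in NIH/3T3 mouse fibroblasts as host cells; luminescent beta-galactosidase reporter signal from transgenic T. cruzi replicating inside host cells; inhibitors lower the luminescence signal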
[12] = target: Eukaryotic translation initiation factor 4E (Mus musculus, UniProt P63073); assay: blockers of eIF4G binding by eIF4E – biochemical, TR-FRET, dose response (AID 855); type: functional;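 further: potency for disrupting eIF4E binding to eIF4GI seen as loss of FRET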
[13] = NIH3T3 cell viability loss – ATP luminescence, mouse fibroblasts, counter-screen, dose response (AID 2010); type: functional, cell-based;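 further: cells exposed to compound for about 90 hours before reading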
[14] = tested on: INS1; assay: INS-1E survival protection against cytokine death – cell-based, luminescence, retest, dose response (AID 449756); type: functional; settings: Rattus norvegicus;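 further: cell death triggered by IL-1 beta plus TNF-alpha plus IFN-gamma mixture; protective hits raise ATP signal compared with cytokine alone wells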
[15] = target: Paired box protein Pax-8 (Homo sapiens, UniProt Q06710); assay: PAX8 transcriptional activity inhibition in RMG-I – RMG-I cells, luciferase, cherry-pick, dose response (AID 687027); type: functional, cell-based;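 further: luciferase reporter driven by Pax8 target thyroperoxidase promoter measured by SteadyGlo luminescence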
[16] = target: Histone-lysine N-methyltransferase NSD2 (Homo sapiens, UniProt O96028); type: biochemical
[17] = target: Induced myeloid leukemia cell differentiation protein Mcl-1 (Homo sapiens, UniProt Q07820); type: functional
[18] = NIH-3T3 fibroblast cytotoxicity, dose response, cytotoxicity control, cell-based, fluorescence, Alamar Blue, secondary assay (AID 2327); type: functional;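 further: NIH-3T3 mouse fibroblasts cultured with fluconazole at 8 µg/mL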
[19] = activation of miR-122 Renilla sensor silencing – cell-based, Huh7 psiCHECK-miR122, Renilla luciferase, cherry-picked, dose response (AID 651956); type: functional;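 further: huh7 hepatoma cells stably carrying a psiCHECK-2 miR-122 sensor plasmid; renilla luciferase signal reporting endogenous miR-122 activity after 48 h compound exposure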
[20] = target: T4, Oxysterols receptor LXR-beta (Homo sapiens, UniProt P55055); type: functional, cell-based;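 further: agonist activity at LXR measured by a cell-based luminescence readout across a dose range, run as a counterscreen for daf-12 agonists; HEK293 cells with Gal4-LXR fusion and GAL4-driven luciferase reporter; potency for activation of Gal4-LXR reporter so compounds are agonists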
T4 sequence (P55055 whole entry): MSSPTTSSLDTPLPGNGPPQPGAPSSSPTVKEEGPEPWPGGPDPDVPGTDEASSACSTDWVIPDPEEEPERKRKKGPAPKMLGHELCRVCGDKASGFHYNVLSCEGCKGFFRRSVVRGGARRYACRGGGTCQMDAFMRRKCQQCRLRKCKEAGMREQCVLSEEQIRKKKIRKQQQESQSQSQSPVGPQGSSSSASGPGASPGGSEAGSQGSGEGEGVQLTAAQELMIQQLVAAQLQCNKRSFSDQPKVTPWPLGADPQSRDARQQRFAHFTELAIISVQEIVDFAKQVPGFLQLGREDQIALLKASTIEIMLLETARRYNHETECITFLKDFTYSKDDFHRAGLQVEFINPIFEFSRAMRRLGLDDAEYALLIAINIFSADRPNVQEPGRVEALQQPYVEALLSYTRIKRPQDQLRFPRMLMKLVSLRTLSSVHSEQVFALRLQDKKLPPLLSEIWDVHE

[21] = target: DNA repair and recombination protein RAD54-like (Homo sapiens, UniProt Q92698); assay: RAD54 Holliday junction migration blockers – biochemical, fluorescence, cherry-picked samples, dose series, confirmation (AID 651657); type: functional
[22] = target: T5, DNA repair protein RAD52 homolog (Homo sapiens, UniProt P43351); type: functional, biochemical
T5 sequence (P43351 whole entry): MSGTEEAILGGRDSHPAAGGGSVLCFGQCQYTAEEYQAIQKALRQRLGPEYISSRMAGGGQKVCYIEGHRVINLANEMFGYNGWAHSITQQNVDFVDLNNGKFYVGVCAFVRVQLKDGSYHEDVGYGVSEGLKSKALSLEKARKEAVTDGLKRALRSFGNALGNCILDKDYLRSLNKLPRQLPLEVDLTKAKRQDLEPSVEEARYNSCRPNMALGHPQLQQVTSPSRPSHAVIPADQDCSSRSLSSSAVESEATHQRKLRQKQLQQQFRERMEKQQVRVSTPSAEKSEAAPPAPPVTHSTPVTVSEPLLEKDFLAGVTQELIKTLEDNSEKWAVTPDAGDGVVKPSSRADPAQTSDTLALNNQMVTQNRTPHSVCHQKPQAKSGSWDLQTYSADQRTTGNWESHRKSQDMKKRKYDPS

[23] = viability loss in THP-1 monocytes – THP-1 cells, cytotoxicity control for Vif-APOBEC3G degradation inhibitor project, dose response (AID 1117359); type: functional; settings: THP-1
[24] = general mammalian cell viability loss – activator set, cherry-pick, cytotoxicity control for miR-122 modulator project, dose response (AID 720690); type: functional, cell-based;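 further: HEK293T human cells scored for general mammalian cytotoxicity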
[25] = target: T6, Fatty acid synthase (Homo sapiens, UniProt P49327); assay: inhibition of human FAS-TE enzyme activity – biochemical, kinetic fluorescence intensity, dose response (AID 624326); type: functional;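 further: rate of fluorescence rise from hydrolysis of a fluorogenic O-methyl fluorescein ester substrate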
[26] = general mammalian cell viability loss – inhibitor set, cherry-pick, set 2, cytotoxicity control for miR-122 modulator project, dose response (AID 720697); type: functional, cell-based
[27] = target: T6, Fatty acid synthase; assay: inhibition of human FAS-TE enzyme activity – biochemical, endpoint fluorescence intensity, uHTS hits, dose response (AID 624327); type: functional;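 further: fluorescence from hydrolysis of an O-methyl fluorescein acyl ester substrate by the enzyme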
[28] = Luminescence Cell-Based Dose Retest to Confirm Inhibitors of Cancer Stem Cells. [Related pubchem assays (depositor defined):AID2717, AID2721]; type: functional; settings: Homo sapiens
[29] = blockade of melanocortin 4 receptor signaling – cell-based, plate reader, cherry pick, counter-screen for LGR2 antagonist project, dose response (AID 743444); type: functional;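 further: transfected HEK 293 cells stimulated with alpha-MSH peptide; potency of inhibitors of the alpha-MSH evoked signal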
[30] = viability loss in HEK293 cells – cell-based, plate reader, cherry-picked samples, cytotoxicity control, dose response (AID 743446); type: functional
[31] = toxicity toward HepG2 liver cells – cell-based, plate reader, cherry-pick, antagonist series, cytotoxicity control, dose response (AID 743416); type: functional
[32] = A549 cell cytotoxicity, dose response, cytotoxicity control, plate reader, cherry-pick, antagonist series (AID 743412); type: functional, cell-based
[33] = blockers of bursicon-stimulated LGR2 cAMP reporter – cell-based, HEK293, CRE-luciferase reporter, cherry pick, set 2, dose response (AID 743343); type: functional;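 further: transfected cells were stimulated with diluted bursicon conditioned medium after compound addition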
[34] = target: T7, Beta-lactamase (Pseudomonas aeruginosa, UniProt Q79MP6); assay: inhibition of IMP-1 beta-lactamase activity – biochemical, epi-absorbance, selectivity assay for VIM-2 inhibitor project, dose response (AID 1920)
[35] = target: Beta-lactamase (Salmonella choleraesuis (strain SC-B67), UniProt Q5J463); assay: Epi-absorbance-based counterscreen for selective VIM-2 inhibitors: dose response biochemical high throughput screening assay to identify inhibitors of TEM-1 serine-beta-lactamase.
[36] = target: T7, Beta-lactamase; assay: […] counterscreen for selective VIM-2 inhibitors: dose response biochemical high throughput screening assay to identify inhibitors of IMP-1 metallo-beta-lactamase.
[37] = bead-based luminescence quenchers, dual-tagged ARNT – biochemical, AlphaScreen, cherry-pick, artefact control for ARNT-TACC3 interaction inhibitor project, dose response (AID 651705); type: functional;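 further: AlphaScreen bead proximity signal that flags compounds interfering with the detection technology; potency reflects signal decrease which marks the compound as an assay artifact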
[38] = cells; type: functional, cell-based; remark: listed apart in the source
[39] = cells; type: functional, cell-based; remark: listed apart in the source
[40] = target: Nonstructural protein 1 (Influenza A virus, UniProt Q194T2); type: functional, Influenza A virus (A/California/07/2009(H1N1))
Chain of Nonstructural protein 1 (Q194T2 whole entry): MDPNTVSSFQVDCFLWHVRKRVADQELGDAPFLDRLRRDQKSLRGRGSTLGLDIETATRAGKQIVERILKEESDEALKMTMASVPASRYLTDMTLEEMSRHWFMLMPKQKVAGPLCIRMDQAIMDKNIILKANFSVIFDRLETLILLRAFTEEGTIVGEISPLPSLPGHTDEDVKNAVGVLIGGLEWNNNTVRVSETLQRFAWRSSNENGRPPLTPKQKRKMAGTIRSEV

Chain of Fructose-bisphosphate aldolase (P9WQA3 whole entry): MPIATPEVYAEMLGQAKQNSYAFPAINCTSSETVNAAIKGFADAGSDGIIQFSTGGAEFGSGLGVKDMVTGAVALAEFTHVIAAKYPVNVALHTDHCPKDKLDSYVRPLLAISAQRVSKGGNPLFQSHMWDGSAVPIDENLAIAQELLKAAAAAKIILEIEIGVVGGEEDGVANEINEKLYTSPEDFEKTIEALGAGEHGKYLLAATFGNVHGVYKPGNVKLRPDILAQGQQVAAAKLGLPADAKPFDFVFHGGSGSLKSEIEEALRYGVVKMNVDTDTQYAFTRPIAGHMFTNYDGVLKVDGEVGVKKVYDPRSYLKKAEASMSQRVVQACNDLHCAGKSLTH
T7 sequence (Q79MP6 whole entry): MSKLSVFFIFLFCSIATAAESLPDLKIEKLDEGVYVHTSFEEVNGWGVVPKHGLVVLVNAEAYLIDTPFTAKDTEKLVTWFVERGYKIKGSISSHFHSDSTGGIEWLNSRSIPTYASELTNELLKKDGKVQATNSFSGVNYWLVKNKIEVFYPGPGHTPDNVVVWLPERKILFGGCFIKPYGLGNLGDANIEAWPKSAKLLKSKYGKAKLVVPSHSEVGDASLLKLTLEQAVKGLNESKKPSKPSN
T6 sequence (P49327 whole entry): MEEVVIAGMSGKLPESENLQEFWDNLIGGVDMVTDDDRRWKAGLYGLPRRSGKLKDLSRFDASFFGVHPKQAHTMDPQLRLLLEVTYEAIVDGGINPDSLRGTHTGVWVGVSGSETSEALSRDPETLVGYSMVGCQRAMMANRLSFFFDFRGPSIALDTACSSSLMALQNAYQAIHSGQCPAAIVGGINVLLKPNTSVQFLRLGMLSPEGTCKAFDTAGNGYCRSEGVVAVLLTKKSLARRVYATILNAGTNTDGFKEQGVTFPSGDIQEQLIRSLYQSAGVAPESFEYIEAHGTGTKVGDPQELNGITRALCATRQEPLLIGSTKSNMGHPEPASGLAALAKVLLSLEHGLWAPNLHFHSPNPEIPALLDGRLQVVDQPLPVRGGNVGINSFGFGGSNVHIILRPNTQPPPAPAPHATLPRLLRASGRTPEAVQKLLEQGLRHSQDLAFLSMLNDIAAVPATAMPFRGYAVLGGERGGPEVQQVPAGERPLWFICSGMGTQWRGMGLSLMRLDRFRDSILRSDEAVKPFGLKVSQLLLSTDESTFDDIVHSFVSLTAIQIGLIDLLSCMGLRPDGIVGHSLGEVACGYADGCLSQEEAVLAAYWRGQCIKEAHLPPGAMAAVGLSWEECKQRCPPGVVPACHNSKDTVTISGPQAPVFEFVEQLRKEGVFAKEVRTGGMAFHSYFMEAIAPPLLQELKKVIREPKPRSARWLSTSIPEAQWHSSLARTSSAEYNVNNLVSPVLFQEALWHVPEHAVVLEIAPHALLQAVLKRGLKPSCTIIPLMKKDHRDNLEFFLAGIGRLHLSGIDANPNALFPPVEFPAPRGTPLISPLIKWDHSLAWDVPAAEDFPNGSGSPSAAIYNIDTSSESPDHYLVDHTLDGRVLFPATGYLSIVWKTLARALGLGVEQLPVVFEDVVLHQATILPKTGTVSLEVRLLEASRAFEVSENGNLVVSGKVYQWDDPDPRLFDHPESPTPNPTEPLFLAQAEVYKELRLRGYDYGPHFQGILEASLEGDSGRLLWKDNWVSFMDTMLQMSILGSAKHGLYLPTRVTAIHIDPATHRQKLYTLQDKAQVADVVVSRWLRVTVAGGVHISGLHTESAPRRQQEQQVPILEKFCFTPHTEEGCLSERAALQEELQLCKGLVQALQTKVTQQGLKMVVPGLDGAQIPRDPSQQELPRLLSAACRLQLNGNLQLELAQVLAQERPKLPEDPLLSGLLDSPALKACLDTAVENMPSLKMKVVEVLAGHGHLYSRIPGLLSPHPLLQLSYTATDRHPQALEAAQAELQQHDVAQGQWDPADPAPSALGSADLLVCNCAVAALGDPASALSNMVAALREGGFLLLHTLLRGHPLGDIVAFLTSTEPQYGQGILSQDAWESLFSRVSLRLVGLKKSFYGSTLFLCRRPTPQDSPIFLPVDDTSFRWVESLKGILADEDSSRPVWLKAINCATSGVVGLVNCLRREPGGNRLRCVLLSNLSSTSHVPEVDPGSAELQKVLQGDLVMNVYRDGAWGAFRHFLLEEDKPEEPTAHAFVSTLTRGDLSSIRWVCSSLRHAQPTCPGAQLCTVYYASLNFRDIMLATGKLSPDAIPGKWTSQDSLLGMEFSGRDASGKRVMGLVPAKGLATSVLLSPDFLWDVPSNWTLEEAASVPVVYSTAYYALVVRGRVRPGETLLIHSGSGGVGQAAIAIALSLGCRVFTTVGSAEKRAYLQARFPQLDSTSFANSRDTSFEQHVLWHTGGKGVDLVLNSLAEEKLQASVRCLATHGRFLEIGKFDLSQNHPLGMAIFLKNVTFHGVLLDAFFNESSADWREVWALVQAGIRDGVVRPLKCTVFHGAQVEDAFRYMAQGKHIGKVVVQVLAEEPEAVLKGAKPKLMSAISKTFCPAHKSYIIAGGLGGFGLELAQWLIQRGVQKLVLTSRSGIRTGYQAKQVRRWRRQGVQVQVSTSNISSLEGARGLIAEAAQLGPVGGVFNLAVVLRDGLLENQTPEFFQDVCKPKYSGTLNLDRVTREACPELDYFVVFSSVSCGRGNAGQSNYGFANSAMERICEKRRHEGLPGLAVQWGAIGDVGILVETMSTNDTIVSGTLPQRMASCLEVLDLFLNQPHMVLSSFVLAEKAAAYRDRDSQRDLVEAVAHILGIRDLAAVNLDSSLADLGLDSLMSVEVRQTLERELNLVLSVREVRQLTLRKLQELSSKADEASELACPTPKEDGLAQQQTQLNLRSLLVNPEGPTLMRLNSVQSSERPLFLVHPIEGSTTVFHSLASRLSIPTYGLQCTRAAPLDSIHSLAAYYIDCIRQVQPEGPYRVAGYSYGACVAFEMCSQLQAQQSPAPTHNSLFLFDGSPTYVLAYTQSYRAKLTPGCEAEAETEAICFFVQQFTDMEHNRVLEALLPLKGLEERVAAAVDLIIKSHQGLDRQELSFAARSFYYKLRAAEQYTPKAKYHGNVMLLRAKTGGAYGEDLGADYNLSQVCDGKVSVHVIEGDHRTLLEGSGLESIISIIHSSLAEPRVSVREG
Chain of DNA repair and recombination protein RAD54-like (Q92698 whole entry): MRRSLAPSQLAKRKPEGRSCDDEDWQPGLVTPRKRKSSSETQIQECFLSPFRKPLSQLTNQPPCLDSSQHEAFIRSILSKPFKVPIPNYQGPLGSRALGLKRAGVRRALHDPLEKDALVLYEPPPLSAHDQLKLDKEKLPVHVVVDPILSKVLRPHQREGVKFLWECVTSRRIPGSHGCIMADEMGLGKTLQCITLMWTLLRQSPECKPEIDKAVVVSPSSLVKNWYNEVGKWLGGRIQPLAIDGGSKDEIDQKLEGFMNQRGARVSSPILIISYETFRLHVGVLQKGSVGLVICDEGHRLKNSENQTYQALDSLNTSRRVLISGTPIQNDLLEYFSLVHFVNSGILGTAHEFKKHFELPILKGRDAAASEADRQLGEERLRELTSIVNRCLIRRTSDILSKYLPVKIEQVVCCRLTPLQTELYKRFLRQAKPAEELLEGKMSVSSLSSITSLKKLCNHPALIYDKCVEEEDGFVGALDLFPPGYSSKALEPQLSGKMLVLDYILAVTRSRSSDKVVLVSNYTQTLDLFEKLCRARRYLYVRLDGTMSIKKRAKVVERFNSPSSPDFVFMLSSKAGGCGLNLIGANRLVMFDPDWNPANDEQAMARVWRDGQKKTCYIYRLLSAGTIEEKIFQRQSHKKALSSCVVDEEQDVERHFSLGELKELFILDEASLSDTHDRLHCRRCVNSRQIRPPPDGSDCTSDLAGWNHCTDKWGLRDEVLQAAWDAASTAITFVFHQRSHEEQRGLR
Chain of Beta-lactamase (Salmonella choleraesuis (strain SC-B67), UniProt Q5J463) (Q5J463 whole entry): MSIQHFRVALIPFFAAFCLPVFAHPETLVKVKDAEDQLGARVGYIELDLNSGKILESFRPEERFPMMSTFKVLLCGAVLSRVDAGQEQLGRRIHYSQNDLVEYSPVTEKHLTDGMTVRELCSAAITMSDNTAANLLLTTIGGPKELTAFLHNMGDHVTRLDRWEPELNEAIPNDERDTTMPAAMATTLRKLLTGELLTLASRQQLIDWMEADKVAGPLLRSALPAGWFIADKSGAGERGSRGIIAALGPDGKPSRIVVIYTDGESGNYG
Chain of Paired box protein Pax-8 (Q06710 whole entry): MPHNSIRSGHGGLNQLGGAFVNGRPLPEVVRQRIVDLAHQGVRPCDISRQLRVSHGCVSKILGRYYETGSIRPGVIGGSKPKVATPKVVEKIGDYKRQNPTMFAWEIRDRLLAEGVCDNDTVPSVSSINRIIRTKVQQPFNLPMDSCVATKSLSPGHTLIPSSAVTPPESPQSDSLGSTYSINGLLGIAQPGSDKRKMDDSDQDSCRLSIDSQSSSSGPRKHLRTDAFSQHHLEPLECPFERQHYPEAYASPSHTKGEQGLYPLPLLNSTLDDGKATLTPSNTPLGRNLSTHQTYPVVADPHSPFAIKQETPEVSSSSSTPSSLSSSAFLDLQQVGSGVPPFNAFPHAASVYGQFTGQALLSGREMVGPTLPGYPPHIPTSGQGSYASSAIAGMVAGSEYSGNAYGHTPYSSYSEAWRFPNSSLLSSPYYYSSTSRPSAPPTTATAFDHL
Chain of Eukaryotic translation initiation factor 4E (P63073 whole entry): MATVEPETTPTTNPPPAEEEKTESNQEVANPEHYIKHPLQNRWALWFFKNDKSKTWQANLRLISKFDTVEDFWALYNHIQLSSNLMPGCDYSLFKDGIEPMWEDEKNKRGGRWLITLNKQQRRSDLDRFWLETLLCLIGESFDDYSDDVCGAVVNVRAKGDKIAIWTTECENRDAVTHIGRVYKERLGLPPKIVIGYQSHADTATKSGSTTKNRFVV

COCCn1c(SCC(=O)N2CCCCC2)nc2c(c1=O)SCC2
IC50 [1]: > 9.99 µM (inactive)

CCCCCCCCNS(=O)(=O)/C=C/c1ccccc1CNC(=O)OC(C)(C)C
IC50 [2]: > 7.73 µM (active) | IC50 [3]: > 69.6 µM (inactive)

CCOC(=O)c1sc2nc(OCCN3CCOCC3)cc(C)c2c1N
AC50 [4]: 2.18 µM (active) | IC50 [5]: 61.1 µM (inactive) | AC50 [6]: 45.2 µM (active)

O=C(c1ccc2nc(Cc3ccccc3F)oc2c1)N1CC[C@H](O)C1
IC50 [7]: > 67.6 µM (inactive) | IC50 [8]: > 67.6 µM (inactive)

COc1cc2c(c(OC)c1OC)-c1ccc(OC)c(=O)cc1C(NC(=O)c1ccccc1)CC2 (stereo unspecified)
IC50 [7]: > 67.5 µM (inactive) | IC50 [8]: > 67.5 µM (inactive)

CC(C)Oc1ccccc1OC1(C)CCN(Cc2ccc(OC(F)(F)F)cc2)C1 (stereo unspecified)
AC50 [9]: 27.4 µM (active)

CN1c2ccccc2N(C)C1(C)c1ccccc1
EC50 [10]: > 38 µM (not active) | EC50 [11]: 0.278 µM (active) | IC50 [12]: > 64 µM (inactive) | EC50 [13]: > 60 µM (not active) | AC50 [14]: 0.283 µM (active) | AC50 [15]: 9.4 µM (active) | AC50 [16]: > 20 µM (inactive) | IC50 [17]: 4.95 µM (active) | EC50 [18]: > 150 µM (inactive)

CN1C(=O)c2cc(NC(=O)Nc3cccc(Cl)c3)ccc2OC[C@@H]2O[C@H](CC(=O)NCCc3ccncc3)CC[C@H]21
AC50 [19]: 16.1 µM (active)

COc1cccc(-c2nc3ccccc3s2)c1
EC50 [20]: > 67.5 µM (inactive)

CCOCCCN=C(S)Nc1ccc2nc(N3CCN(CC)CC3)cc(C)c2c1
AC50 [21]: 100 µM (inactive) | AC50 [22]: 33 µM (active) | CC50 [23]: > 40 µM (active)

c1ccc(CSc2ccc(-c3cccs3)nn2)cc1
EC50 [20]: > 67.5 µM (inactive)

CN(C)CCNc1nc2sc3c(c2c(=O)n1CCc1ccccc1)CCCCC3
EC50 [11]: 0.125 µM (active) | EC50 [13]: 30.9 µM (active) | AC50 [24]: 14.7 µM (active) | IC50 [25]: 19.3 µM (active) | AC50 [26]: 7.83 µM (active) | IC50 [27]: 18.8 µM (active) | AC50 [28]: 6.6 µM (active)

Cc1oc(C)c(C(=O)Nc2ccc(CC(=O)O)cc2)c1C(=O)Nc1ccc(CC(=O)O)cc1
IC50 [1]: > 9.99 µM (inactive)

C[C@H]1CN([C@@H](C)CO)S(=O)(=O)c2ccc(C#CC(C)(C)O)cc2O[C@@H]1CN(C)Cc1ccc(-c2ccccc2)cc1
AC50 [29]: 20.2 µM (active) | AC50 [24]: 12.3 µM (active) | AC50 [19]: 7.8 µM (active) | AC50 [30]: 1.95 µM (active) | AC50 [26]: 10.7 µM (active) | AC50 [31]: 0.759 µM (active) | AC50 [32]: 0.778 µM (active) | AC50 [33]: 29.6 µM (active)

O=c1c2ccccc2cnn1Cc1nnc(S)n1C1CC2CCC1C2 (stereo unspecified)
IC50 [34]: > 59.6 µM (inactive) | IC50 [35]: > 59.6 µM (inactive) | IC50 [36]: > 59.6 µM (inactive)

COc1ccccc1CNC(=O)C(=O)Nc1ccc(C(=O)N2CCC(C)CC2)cc1
AC50 [9]: 25.8 µM (active)

Cc1ncc(CO)c(/C=N/NC(=O)c2cc3c(s2)CCCC3)c1O
AC50 [37]: 119 µM (active) | EC50 [38]: > 350 µM (not active) | AC50 [14]: 1.89 µM (active) | EC50 [39]: 11.4 µM (active) | IC50 [40]: 11.9 µM (active)
